In one series the target is T1, hERG channel (Homo sapiens, UniProt Q12809).
T1 construct: purchased Invitrogen (Carlsbad, Calif.)
In words: hERG fluorescence polarization Predictor Assay. Format: binding. Also on record: dose or concentration left out as unconfirmed. The source says:
Inhibition of the hERG channel is undesirable. Checking for hERG blockage is an integral step in the drug discovery cycle. The presently disclosed method is well-suited for high-throughput measurements based on fluorescence polarization (FP) as implemented in the Predictor Assay by Invitrogen (Carlsbad, Calif.). This assay is based on the principle that a fluorescent tracer upon binding to the hERG channel will induce an increase in the FP signal that will diminish when an inhibitor displaces the interaction between the tracer and the hERG channel.
FP measurements for IPR-1 and IPR-69 were performed using an EnVision (PerkinElmer) plate reader at an excitation of 540 nm and emission at 573 nm. […] At the highest concentration of 25 μM, which is near its biological activity in tumor cells, 60% blockage is detected.

Series [1] deals with human umbilical vein endothelial cells (HUVEC). In words: Matrigel-based tube formation (angiogenesis) assay. Format: cell-based. The following applies: HUVEC in Matrigel.
A further series deals with salmon sperm DNA. In words: Fluorescent Intercalator Displacement assay (ethidium bromide). Type of series: binding. Also on record: displacement of ethidium bromide: dose or concentration left out as unconfirmed. Conditions: for displacement of ethidium bromide: […] μM; for DNA binding: three concentrations tested. As for the experimental part: Finally, DNA binding by these three compounds was assessed. DNA binding is often a reflection of non-specificity, which can lead to adverse side effects. The well-established Fluorescent Intercalator Displacement assay by Tse et al.^43 that measures displacement of ethidium bromide, a known intercalator of DNA was used. In this assay, ethidium bromide (EB) bound to the salmon sperm DNA.

The next series deals with T2, uPAR (Homo sapiens, UniProt Q03405).
T2 construct: human uPAR (suPAR, amino acids 1-283) was expressed in stably transfected Drosophila S2 cells; made in house; host or cells: Drosophila S2 cells
T2 sequence (Q03405 23-305): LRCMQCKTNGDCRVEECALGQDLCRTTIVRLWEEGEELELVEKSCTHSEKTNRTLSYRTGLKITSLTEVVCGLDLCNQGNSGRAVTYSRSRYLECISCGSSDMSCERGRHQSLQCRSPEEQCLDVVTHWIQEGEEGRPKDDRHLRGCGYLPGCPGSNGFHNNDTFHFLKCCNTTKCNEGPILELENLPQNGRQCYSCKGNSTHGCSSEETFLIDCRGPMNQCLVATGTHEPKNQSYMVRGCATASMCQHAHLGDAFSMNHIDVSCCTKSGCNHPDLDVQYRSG
In words: Fluorescence polarization assay, displacement of AE147-FAM peptide from uPAR. Type of series: binding. As to the method:
Fluorescence Polarization Assay. The fluorescence polarization assay used fluorescent AE147-FAM peptide. uPAR was titrated against the fluorescent AE147-FAM peptide and data were fit to a sigmoidal dose-dependent curve as the FP value increases to determine the Kd of binding using Sigmaplot (Systat Software Inc., CA). Inhibitor screens were carried out in triplicates using 500 nM uPAR, 100 nM AE147-FAM, and inhibitor concentrations ranging from 0.78 μM to 100 μM in 50 μL volumes in black BD Falcon 384-well microplate. […] Polarized fluorescence intensities were measured immediately following addition of inhibitors to the protein-peptide mix at room temperature on an EnVision® Multilabel Plate Readers (PerkinElmer) with excitation and emission wavelengths of 485 nm and 530 nm, respectively.
Cloning, Expression and Purification of uPAR. uPAR was successfully cloned, expressed and purified. From 1 L of culture, nearly 12 mg of protein was expressed, which will be sufficient to conduct the experiments disclosed herein. Briefly, a truncated, soluble form of human uPAR (suPAR, amino acids 1-283) was expressed in stably transfected Drosophila S2 cells using the Drosophila Expression System (Invitrogen). suPAR was obtained by a two-step purification process. The conditioned culture medium was filtered (0.45 μm) and loaded onto a DEAE Sephadex column equilibrated with 20 mM Tris (pH 7.4). The protein was eluted with a gradient of 0-1 M NaCl in 20 mM Tris (pH 7.4). suPAR containing fractions were then pooled, concentrated, and filtered prior to RP-HPLC using a semi-preparative (10×25 cm) C8 column. A 1 mL aliquot of the concentrated protein was loaded onto the column at initial gradient conditions of 95% eluent A and 5% eluent B, where eluent A was 0.1% TFA/100% H2O and eluent B was 70:30 acetonitrile/[…]. The protein elutes using a gradient of 5% eluent A to 95% eluent B over 46 minutes at a flow rate of 4 mL/min. Under these conditions, the protein eluted as a single sharp peak (tR=29 min). […] Surface plasmon resonance confirmed that the purified uPAR was capable of binding to uPA. The identity of the 60 kDa band was established by immunoblot (not shown).
The design of a fluorescent probe was guided by the three-dimensional structure of uPAR in complex with peptide AE147.^27 As this peptide binds at the same site that is occupied by the growth factor-like domain of uPA, it provides the basis for the development of a competition assay to assess binding to this site. Flurescein was introduced to the N-terminus of AE147.
All 210 compounds were screened at initial concentration of 50 μM for displacement of AE147-FAM peptide. Eleven compounds gave polarization readings that were five times that of the standard deviation of the control peptide (FIG. 1B). Secondary concentration-dependent study for these eleven compounds was performed.
The resulting inhibition curves were used to determine an inhibition constant, Ki, for each.

The subject of a further series is MDA-MB-231 cells. In words: MTT proliferation assay. The following applies: read-out: IC50 of cell proliferation (MTT). Format: cell-based, human. As for the experimental part:
Proliferation Assay. The procedure consisted of culturing cells at 37° C. in 10% FBS-DMEM medium containing various amounts of compound. 5 mM compound stock in 100% DMSO was 1:50 diluted in medium, filtered, and serially diluted in 96-well plate. Then seeded cells were incubated for 3 days. Viable cells were quantified by MTT assay at absorbance of 570 and 630 nm.
FIGS. 4A-4D show inhibition of MDA-MB-231 proliferation and mechanism of cell killing. To gain insight into the mechanism by which these compounds are inhibiting growth, a flow cytometry analysis with annexin V-FITC and PI staining was performed. The level of apoptotic cells in MDA-MB-231 was assessed by the percentage of Annexin V-positive/PI-negative cells present after exposure of MDAMB-231 cells to increasing concentration of IPR-69 for 24 h (FIG. 4B). At a concentration of 50 μM, IPR-69 induced significant apoptosis as evidenced by a 51% and 21% increase in apoptotic cells (Annexin V positive/PI-negative) and necrotic cells (Annexin V-positive/PI-positive), respectively. […] At a concentration of 50 μM, 26% of cells were necrotic (Annexin V positive/PI-positive), a 22% increase over control. 46% of cells were apoptotic (Annexin V positive/PInegative), compared with 4% of control.

The mark [2] stands for this setting: Homo sapiens, MDA-MB-231, MDA-MB-231.

Results on two molecules are retold here after patent US9745288B2, “Compounds and methods for treating cancer by inhibiting the urokinase receptor” (Indiana University Research and Technology Corporation, priority 2011, dated 2017).

“Also recorded” adds a separate entry of the source. Read-outs that look alike come from different tables or passages of the source.

T1 sequence (Q12809 whole entry): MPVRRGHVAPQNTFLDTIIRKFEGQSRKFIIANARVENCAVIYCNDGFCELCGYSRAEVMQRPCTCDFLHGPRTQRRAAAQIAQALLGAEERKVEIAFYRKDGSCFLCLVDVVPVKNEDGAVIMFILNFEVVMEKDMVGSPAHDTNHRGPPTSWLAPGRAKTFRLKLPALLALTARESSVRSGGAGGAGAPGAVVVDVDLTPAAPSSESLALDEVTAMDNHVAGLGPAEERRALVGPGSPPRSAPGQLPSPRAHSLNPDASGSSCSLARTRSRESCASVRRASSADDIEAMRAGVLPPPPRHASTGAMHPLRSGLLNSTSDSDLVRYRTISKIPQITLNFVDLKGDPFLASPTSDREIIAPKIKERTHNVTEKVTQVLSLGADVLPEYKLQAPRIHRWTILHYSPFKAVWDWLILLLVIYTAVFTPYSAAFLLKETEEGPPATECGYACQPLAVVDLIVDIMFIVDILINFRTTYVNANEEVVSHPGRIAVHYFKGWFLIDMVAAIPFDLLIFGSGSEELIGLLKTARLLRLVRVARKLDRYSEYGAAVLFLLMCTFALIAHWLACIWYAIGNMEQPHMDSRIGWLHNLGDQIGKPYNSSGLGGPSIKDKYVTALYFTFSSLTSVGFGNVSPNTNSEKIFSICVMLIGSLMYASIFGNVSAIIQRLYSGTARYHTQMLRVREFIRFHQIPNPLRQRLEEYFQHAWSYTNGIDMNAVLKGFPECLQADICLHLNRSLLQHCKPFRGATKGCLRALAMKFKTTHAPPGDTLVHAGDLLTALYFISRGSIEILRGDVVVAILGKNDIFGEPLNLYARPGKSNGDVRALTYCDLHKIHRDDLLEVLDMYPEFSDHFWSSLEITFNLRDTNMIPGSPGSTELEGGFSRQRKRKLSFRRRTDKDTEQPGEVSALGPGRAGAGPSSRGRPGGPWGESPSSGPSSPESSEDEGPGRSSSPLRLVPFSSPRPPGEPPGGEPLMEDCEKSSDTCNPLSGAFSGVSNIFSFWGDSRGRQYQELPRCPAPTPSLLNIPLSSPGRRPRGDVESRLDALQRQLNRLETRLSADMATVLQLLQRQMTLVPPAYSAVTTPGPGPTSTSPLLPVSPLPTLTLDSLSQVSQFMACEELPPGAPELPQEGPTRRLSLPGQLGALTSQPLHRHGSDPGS

Take `CN(C)c1ccc(CNCCC(Cc2ccccc2)c2ccc3c(c2)OCO3)cc1` (racemic) [IPR-9, 4-(((3-(benzo[d][1,3]dioxol-5-yl)-4-phenylbutyl)amino)methyl)-N,Ndimethylaniline]: on hERG channel (1, 10 and […] μM), the “hERG channel blockage” value was “even greater hERG K^+ channel blockage than the well-known channel blocker E-4031”. Further, the IC50 is 3 µM in series [1]; 24.4 µM on uPAR (Table 1, assay not stated); 6 µM in the series with MDA-MB-231 cells (setting [2]). The “displacement of ethidium bromide” value in the series with salmon sperm DNA is given as 30%. The “DNA binding” value in the series on salmon sperm DNA is reported as “not strongly affected”. For the same molecule, the Ki on uPAR (Table 1, assay not stated, read-out: Ki) turned out to be 7.4 µM.
In the case of `Cc1cc(C)cc(NC(=O)c2cnn(-c3ccc(C(C)C)cc3)c2C2CCNCC2)c1` [IPR-69, N-(3,5-dimethylphenyl)-1-(4-isopropylphenyl)-5-(piperidin-4-yl)-1H-pyrazole-4-carboxamide], the hERG blockage on hERG channel ([…] μM) is on record as 60%. Further, the IC50 in series [1] amounted to 3 µM; in the series with MDA-MB-231 cells (setting [2]), 18 µM; in the series with MDA-MB-231 cells (MDA-MB-231) it was 17 µM. For the same molecule, in the series with salmon sperm DNA, the “displacement of ethidium bromide” value was “less than 10%”. In the series with salmon sperm DNA, the “DNA binding” value is “not strongly affected; also recorded: no DNA binding”. The Ki on uPAR (from concentration-dependent inhibition curves, read-out: inhibition constant, Ki) was 30 µM.
